Experimental data as given in ChEMBL document CHEMBL1201862, “PubChem BioAssay data set” (2004).
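Exposure lasted 48 hours, with cells grown in 96-well plates and compounds tested at five concentrations. At the GI50, growth is halved.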 Active and inactive are the calls of the source. Rule as the data show it: active = GI50 up to about 1.1 µM and inactive = higher.

Legend:
Assay in all cases: NCI-60 cell line screen, 48 h
[1] = test system: 786-0
[2] = test system: A498
[3] = test system: A549
[4] = test system: ACHN
[5] = test system: BT-549
[6] = test system: CAKI-1
[7] = test system: CCRF-CEM
[8] = test system: COLO 205
[9] = test system: DU-145
[10] = test system: EKVX
[11] = test system: HCC 2998
[12] = test system: HCT-116
[13] = test system: HCT-15
[14] = test system: HL-60
[15] = test system: HOP-62
[16] = test system: HOP-92
[17] = test system: HT-29
[18] = test system: Hs-578T
[19] = test system: IGROV-1
[20] = test system: K562
[21] = test system: KM12
[22] = test system: LOX IMVI
[23] = test system: M14
[24] = test system: MCF7
[25] = test system: MDA-MB-231
[26] = test system: MDA-MB-435
[27] = test system: MDA-N
[28] = test system: MOLT-4
[29] = test system: Malme-3M
[30] = test system: NCI-H226
[31] = test system: NCI-H23
[32] = test system: NCI-H460
[33] = test system: NCI-H522
[34] = test system: NCI/ADR-RES
[35] = test system: OVCAR-3
[36] = test system: OVCAR-4
[37] = test system: OVCAR-5
[38] = test system: OVCAR-8
[39] = test system: PC-3
[40] = test system: RPMI-8226
[41] = test system: RXF 393
[42] = test system: SF-268
[43] = test system: SF-295
[44] = test system: SF-539
[45] = test system: SK-MEL-28
[46] = test system: SK-MEL-2
[47] = test system: SK-MEL-5
[48] = test system: SK-OV-3
[49] = test system: SN12C
[50] = test system: SNB-19
[51] = test system: SNB-75
[52] = test system: SR
[53] = test system: SW-620
[54] = test system: T47D
[55] = test system: TK-10
[56] = test system: U-251
[57] = test system: UACC-257
[58] = test system: UACC-62
[59] = test system: UO-31
[60] = test system: DLD-1
[61] = test system: DMS-114
[62] = test system: DMS-273
[63] = test system: HOP-18
[64] = test system: KM-20L2
[65] = test system: LXFL 529
[66] = test system: M19-MEL
[67] = test system: SNB-78

What does the source list for `COc1ccc(C[C@@H]2OC3(C=CC(=O)C=C3)O[C@H]2Cc2ccc(OC)cc2)cc1`?
GI50 [1]: 184 nM (active); GI50 [2]: 5530 nM (inactive); GI50 [3]: 3100 nM (inactive); GI50 [4]: 405 nM (active); GI50 [5]: 221 nM (active); GI50 [6]: 354 nM (active); GI50 [7]: 140 nM (active); GI50 [8]: 1430 nM (inactive); GI50 [9]: 1480 nM (inactive); GI50 [10]: 1890 nM (inactive); GI50 [11]: 1520 nM (inactive); GI50 [12]: 133 nM (active); GI50 [13]: 255 nM; GI50 [14]: 1520 nM (inactive); GI50 [15]: 1590 nM (inactive); GI50 [16]: 653 nM (active); GI50 [17]: 766 nM (active); GI50 [18]: 971 nM (active); GI50 [19]: 317 nM (active); GI50 [20]: 610 nM (active); GI50 [21]: 1910 nM (inactive); GI50 [22]: 172 nM (active); GI50 [23]: 889 nM (active); GI50 [24]: 558 nM (active); GI50 [25]: 1390 nM (inactive); GI50 [26]: 1530 nM (inactive); GI50 [27]: 476 nM (active); GI50 [28]: 173 nM (active); GI50 [29]: 1510 nM (inactive); GI50 [30]: 232 nM (active); GI50 [31]: 1370 nM (inactive); GI50 [32]: 7140 nM (inactive); GI50 [33]: 147 nM (active); GI50 [34]: 822 nM (active); GI50 [35]: 673 nM (active); GI50 [36]: 957 nM (active); GI50 [37]: 832 nM (active); GI50 [38]: 193 nM (active); GI50 [39]: 1330 nM (inactive); GI50 [40]: 202 nM (active); GI50 [41]: 277 nM (active); GI50 [42]: 771 nM (active); GI50 [43]: 2990 nM (inactive); GI50 [44]: 1140 nM (inactive); GI50 [45]: 1710 nM (inactive); GI50 [46]: 1380 nM (inactive); GI50 [47]: 1520 nM (inactive); GI50 [48]: 6150 nM (inactive); GI50 [49]: 1050 nM (active); GI50 [50]: 1820 nM (inactive); GI50 [51]: 1680 nM (inactive); GI50 [52]: 176 nM (active); GI50 [53]: 114 nM (active); GI50 [54]: 291 nM (active); GI50 [55]: 281 nM (active); GI50 [56]: 1280 nM (inactive); GI50 [57]: 1460 nM (inactive); GI50 [58]: 1720 nM (inactive); GI50 [59]: 290 nM (active)

Which results are given for `c1ccc(C2OCCO2)c(OCCOc2cc(OCCOc3ccccc3C3OCCO3)c(OCCOc3ccccc3C3OCCO3)cc2OCCOc2ccccc2C2OCCO2)c1`?
GI50 [1]: 4670 nM (inactive); GI50 [2]: 15800 nM (inactive); GI50 [3]: 24400 nM (inactive); GI50 [4]: 24700 nM (inactive); GI50 [6]: > 100000 nM (inactive); GI50 [7]: > 100000 nM (inactive); GI50 [8]: > 100000 nM (inactive); GI50 [60]: > 100000 nM (inactive); GI50 [61]: 11800 nM (inactive); GI50 [62]: 15300 nM (inactive); GI50 [12]: 14500 nM (inactive); GI50 [13]: > 100000 nM; GI50 [14]: > 100000 nM (inactive); GI50 [63]: > 100000 nM (inactive); GI50 [15]: 13300 nM (inactive); GI50 [16]: 5280 nM (inactive); GI50 [17]: > 100000 nM (inactive); GI50 [19]: 12400 nM (inactive); GI50 [20]: > 100000 nM (inactive); GI50 [64]: > 100000 nM (inactive); GI50 [21]: 91800 nM (inactive); GI50 [22]: 49400 nM (inactive); GI50 [65]: 29200 nM (inactive); GI50 [23]: 26700 nM (inactive); GI50 [66]: > 100000 nM (inactive); GI50 [28]: > 100000 nM (inactive); GI50 [29]: 43100 nM (inactive); GI50 [30]: 13000 nM (inactive); GI50 [31]: 11300 nM (inactive); GI50 [32]: 24300 nM (inactive); GI50 [33]: 2420 nM (inactive); GI50 [35]: 17800 nM (inactive); GI50 [36]: 8340 nM (inactive); GI50 [37]: > 100000 nM (inactive); GI50 [38]: 13900 nM (inactive); GI50 [40]: > 100000 nM (inactive); GI50 [41]: 5350 nM (inactive); GI50 [42]: 15300 nM (inactive); GI50 [43]: 17900 nM (inactive); GI50 [44]: 10700 nM (inactive); GI50 [45]: > 100000 nM (inactive); GI50 [46]: 16500 nM (inactive); GI50 [47]: 26100 nM (inactive); GI50 [48]: 2760 nM (inactive); GI50 [49]: > 100000 nM (inactive); GI50 [51]: 2160 nM (inactive); GI50 [67]: 5460 nM (inactive); GI50 [52]: > 100000 nM (inactive); GI50 [53]: 81300 nM (inactive); GI50 [55]: 14700 nM (inactive); GI50 [56]: 10300 nM (inactive); GI50 [57]: > 100000 nM (inactive); GI50 [58]: 9860 nM (inactive); GI50 [59]: 12900 nM (inactive)
